Measurements from patent publication US20180371076A1, “MATERNAL TH17 CELLS AND PSYCHIATRIC DISORDERS” (New York University, priority 2017, published 2018).

Tests used:
[1] = tested on: offspring of pregnant mice (MIA mouse model); assay: Open field test in adult offspring; type: in vivo
Experimental: Maternal Immune Activation. Mice were mated overnight and females were checked daily for the presence of seminal plugs, noted as embryonic day 0.5 (E0.5). On E12.5, pregnant female mice were weighed and injected with a single dose (20 mg/kg; i.p.) of poly(I:C) (Sigma Aldrich) or PBS vehicle. Each dam was returned to its cage and left undisturbed until the birth of its litter. All pups remained with the mother until weaning on postnatal day 21 (P21), at which time mice were group housed at maximum 5 per cage with same-sex littermates. For the IL-17 cytokine blockade experiment, monoclonal IL-17a blocking antibody (clone 50104; R&D) or isotype control antibody (IgG2a, clone 54447; R&D) was administered 6 h before maternal immune activation (FIG. 2) via i.p. route (500 μg/animal) or 2 days after maternal immune activation (FIG. 5) via i.p. route (500 μg/animal).
Open field test. Adult mice were placed in a 50×50 cm white Plexiglas box. Activity was recorded by a video camera and data was analyzed with Ethovision software (Noldus). The software allows display of the paths taken by the mice, and it measures the total distance moved into the center of the arena in a 10 min session.

[2] = Properties of the litter (gender ratio, litter size, offspring weight); type: in vivo, mouse; settings: PBS vs poly(I:C), control vs anti-IL-17a treated dams
IL-17Ra mRNA = IL-17Ra mRNA in fetal brain (real-time PCR, in situ hybridization); type: in vivo, mouse; settings: E14.5
Experimental: In Situ Hybridization. E14.5 embryos from PBS or poly(I:C)-treated mothers were collected in ice-cold PBS and subsequently fixed in 4% paraformaldehyde for 4 h at 4° C. Isolated brains were dehydrated in 30% sucrose/PBS solution overnight, and then embedded in Tissue Tek O.C.T. compound (Sakura Finetek, Torrance, Calif.). The blocks were sectioned at 16-μm thickness using a cryostat (Leica). Fluorescent in situ hybridization was performed using a branched cDNA probe with amplification technology (ViewRNA ISH Tissue Assay kit, Panomics, Santa Clara) according to the manufacturer's protocol. […]
Real-Time PCR Total RNA was extracted from the cerebral cortex of E14.5 fetal brain of male embryo (RNase plus mini kit, Qiagen) as well as from the decidua- and the placenta-derived mononuclear cells and reverse transcribed into cDNA using oligodT (ProtoScript first strand cDNA synthesis kit, NEB) according to the manufacturer's instructions. mRNA levels of target genes (il17ra, il17rc, il17a and il6) were quantified with a Real-Time PCR System (CFX connect Real-Time PCR, Bio-Rad) using fluorescent SYBR Green technology (Bio-Rad). […] Changes in relative gene expression normalized to gapdh or actin levels were determined using the relative threshold cycle method based on the Cont-PBS group. […]

poly(I:C)
total distance covered in open field ([1]; offspring of MIA mothers): did not affect the total distance covered
time in the center of an open field ([1]; offspring of poly(I:C)-injected WT or RORγ/γt HET animals vs PBS-injected WT): significantly reduced time in the center
gender ratios, litter sizes and weights [2]: not affected
IL-17Ra mRNA in fetal brain (real-time PCR) (IL-17Ra mRNA; induction of MIA): strongly augmented
IL-17Ra mRNA in fetal brain cortex (in situ hybridization) (IL-17Ra mRNA; poly(I:C) injection of pregnant dams): strongly up-regulated
